Results reported in US11246910B2, “Methods of treating immunological disorders using immunosuppressive compositions” (Singapore Health Services Pte Ltd, priority 2016, dated 2022).

Experiments:
[1] = system: MLR/MpJ-Fas^lpr/J (Fas^lpr) mice; assay: Systemic lupus erythematosus (SLE) mouse model; settings: Fas^lpr mice, human source reagents; BM-MSC single treatment (FIG. 12A, B)
[2] = system: two HLA-mismatched UCB-MNCs; assay: Mixed lymphocyte reaction (MLR), cell-mediated cytotoxicity by LDH detection (in vitro GVHD model); format: cell-based, human; settings: lowest concentration giving maximum repression of cytotoxicity in MLR (FIG. 3)
Experimental: MLR served as an in vitro GVHD model and was initiated by co-culturing two HLA-mismatched UCB-MNCs at 15:1 effector/target (E/T) ratios in […] medium (Stem Cell Technologies) for 20 hours in 37° C., 5% CO2 incubator. The mixed lymphocytes (ML) were treated with BM-MSCs by co-culture without transwell inserts (i.e. physical direct contact) or with transwell inserts (i.e. indirect bidirectional regulation via the two secretomes) or with BM-MSC-conditional medium. Transwell inserts were placed at 0.5 mm and 0.9 mm above the well bottom, and the 1-day old BM-MSC culture medium was used as conditional medium (1d-CM). Untreated MLR was used as a negative control to set the cell-mediated cytotoxicity baseline of the MLR. The cell-mediated cytotoxicity was measured by lactate dehydrogenase (LDH) cytotoxicity detection kit (Roche). Following the kit instruction, the detection plate was incubated in the dark for 20 minutes at room temperature, and absorbance was measured at 490 nm with 650 nm as reference wavelength using Benchmark Plus microplate spectrophotometer (Bio-Rad).
All the proteins and antibodies were purchased from Peprotech. For each molecule, the lowest working concentration that caused the maximum repression of cytotoxicity by MLR was used for further analysis. In order to determine the optimal combination of interested cytokines, the twelve molecules were arranged in a 2^12 fractional FD table (Table 3). There were twelve factors with two levels. Level-1 meant without addition of this interested molecule, level-2 meant addition of this interested molecule with optimal working concentration. Condition-1 without addition of any interested molecules served as negative control; Condition-16 with addition of full panel of interested molecules and MLR laid on MSCs served as positive control respectively.
Based on the maximal extend attenuating cell-mediated cytotoxicity, another 2^7 factorial FD (Table 4) was derived from Condition-6 in 2^12 fractional FD, which involved IL-10, OPG, CXCL5, CXCL6, CCL20 anti-CCL1 and anti-CCL24.
Similarly, a 2^4 full FD (Table 5) was further derived from Condition-6 in 2^7 fractional FD, which involved OPG, CXCL5, anti-CCL1 and anti-CCL24.

[3] = system: male ICR mice; assay: Side effect on neutrophil and red blood cell count; format: in vivo, mouse; settings: day 1, 3, 7, 14 post-treatment (FIGS. 5B, 5C)
Experimental: (A) Body weight changes. NSG mice were treated with CXCL5 and anti-CCL24 antibody twice weekly with gradually increasing dose (3 mice were used in each group). (B & C) Side effect on neutrophil and red blood cell count. ICR mice treated with dPBS, CXCL5 and anti-CCL24 antibody were bled and a blood count was performed on day 1, day 3, day 7 and day 14 post-treatment (4 male mice were used for each group). (D & E & F) Liver and kidney toxicity. ICR mice were treated with dPBS, CXCL5 and anti-CCL24 antibody on day 0, day 4 and day 7. Mice peripheral blood by cheek bleeding and urine were harvested on day 1, day 5 and day 8. Alanine transaminase (ALT) and aspartate transaminase (AST or SGOT) concentration in plasma were determined by ALT and AST activity assay kit. Both alanine transaminase and aspartate transaminase are enzyme associated with the liver and are therefore used as clinical marker for liver health. Albumin creatinine ratio (ACR) in urine was determined by Mouse Albumin ELISA kit and Jaffe's reaction using Creatinine Colorimetric Assay kit (3 female ICR mice were used for each group).

CXCL5: epithelial-derived neutrophil-activating protein 78, a CXC chemokine; human source
10 weeks post-treatment survival [1]: 28.6%
optimal in vitro working concentration [2]: 50 ng/mL
neutrophil and RBC count [3]: did not alter neutrophil and RBC count
